Target: Metabotropic glutamate receptor 4 (Homo sapiens, UniProt Q14833)
Assay: Ca2+ Mobilization In Vitro Assay: A monoclonal HEK-293 cell line stably transfected with a cDNA encoding for the human mGlu4 receptor was generated; for the work with mGlu4 Positive Allosteric Modulators (PAMs), a cell line with low receptor expression levels and low constitutive receptor activity was selected to allow the differentiation of agonistic versus PAM activity. Cells were cultured according to standard protocols (Freshney, 2000) in Dulbecco's Modified Eagle Medium with high glucose supplemented with 1 mM glutamine, 10% (vol/vol) heat-inactivated bovine calf serum, Penicillin/Streptomycin, 50 μg/ml hygromycin and 15 μg/ml blasticidin (all cell culture reagents and antibiotics from Invitrogen, Basel, Switzerland).About 24 hrs before an experiment, 5×10^4 cells/well were seeded in poly-D-lysine coated, black/clear-bottomed 96-well plates. The cells were loaded with 2.5 μM Fluo-4AM in loading buffer (1×HBSS, 20 mM HEPES) for 1 hr at 37° C. and washed five times with loading buffer. The cells were transferred into a Functional Drug Screening System 7000 (Hamamatsu, Paris, France), and 11 half logarithmic serial dilutions of test compound at 37° C. were added and the cells were incubated for 10-30 min. with on-line recording of fluorescence. […]

Metabotropic glutamate receptor 4, sequence (Q14833 whole entry): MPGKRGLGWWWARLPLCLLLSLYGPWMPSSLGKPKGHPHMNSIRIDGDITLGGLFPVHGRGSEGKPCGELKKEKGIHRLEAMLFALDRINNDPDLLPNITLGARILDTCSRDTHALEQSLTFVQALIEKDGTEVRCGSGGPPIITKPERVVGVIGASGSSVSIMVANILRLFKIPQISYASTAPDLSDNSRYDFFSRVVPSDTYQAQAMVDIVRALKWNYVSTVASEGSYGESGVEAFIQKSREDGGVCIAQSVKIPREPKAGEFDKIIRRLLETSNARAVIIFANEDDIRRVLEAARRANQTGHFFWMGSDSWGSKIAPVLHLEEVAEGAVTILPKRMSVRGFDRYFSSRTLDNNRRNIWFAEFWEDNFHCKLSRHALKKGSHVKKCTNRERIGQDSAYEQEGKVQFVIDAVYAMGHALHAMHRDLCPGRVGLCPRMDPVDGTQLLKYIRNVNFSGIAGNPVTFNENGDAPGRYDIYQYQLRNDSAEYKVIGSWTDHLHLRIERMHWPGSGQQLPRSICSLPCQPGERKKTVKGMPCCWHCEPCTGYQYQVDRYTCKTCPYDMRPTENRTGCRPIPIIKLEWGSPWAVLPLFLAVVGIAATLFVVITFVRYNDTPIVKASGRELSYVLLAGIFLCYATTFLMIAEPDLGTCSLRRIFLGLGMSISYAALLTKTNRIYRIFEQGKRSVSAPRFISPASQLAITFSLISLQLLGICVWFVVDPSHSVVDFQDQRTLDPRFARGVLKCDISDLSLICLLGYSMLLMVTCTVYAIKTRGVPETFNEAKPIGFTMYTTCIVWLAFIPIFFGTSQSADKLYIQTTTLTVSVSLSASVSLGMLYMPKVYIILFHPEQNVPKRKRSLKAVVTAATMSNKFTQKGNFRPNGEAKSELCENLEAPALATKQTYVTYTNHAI

CC(C)(C)Oc1ncc(N2CCN3C(=O)N(c4c(F)cc(C#Cc5ccccc5)cc4F)C(=O)C[C@@]3(C)C2=O)cn1
EC50: 157 nM

From ChEMBL document CHEMBL5727155, “Ethynyl derivatives” (2018)
